From patent publication US20250243180A1, “TARGETED PROTEIN DEGRADATION” (Monte Rosa Therapeutics AG, priority 2023, published 2025)

Each compound was assayed against CRBN-DDB1 (Homo sapiens (Human), UniProt Q96SW2) (assay: Compound binding to CRBN by HTRF assay). Settings: not given.
Procedure, shortened: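 Ki calculated via Cheng-Prusoff from geometric-mean EC50 values, after normalizing the HTRF ratio to lenalidomide (active) and DMSO (neutral) controls. Compounds (11 points, 1:3 steps) incubated 30 min at ambient temperature with CRBN-DDB1 2.5 nM, anti-His Tb cryptate and Cy5-thalidomide tracer 100 nM.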

Chain of CRBN-DDB1 (Q96SW2 whole entry): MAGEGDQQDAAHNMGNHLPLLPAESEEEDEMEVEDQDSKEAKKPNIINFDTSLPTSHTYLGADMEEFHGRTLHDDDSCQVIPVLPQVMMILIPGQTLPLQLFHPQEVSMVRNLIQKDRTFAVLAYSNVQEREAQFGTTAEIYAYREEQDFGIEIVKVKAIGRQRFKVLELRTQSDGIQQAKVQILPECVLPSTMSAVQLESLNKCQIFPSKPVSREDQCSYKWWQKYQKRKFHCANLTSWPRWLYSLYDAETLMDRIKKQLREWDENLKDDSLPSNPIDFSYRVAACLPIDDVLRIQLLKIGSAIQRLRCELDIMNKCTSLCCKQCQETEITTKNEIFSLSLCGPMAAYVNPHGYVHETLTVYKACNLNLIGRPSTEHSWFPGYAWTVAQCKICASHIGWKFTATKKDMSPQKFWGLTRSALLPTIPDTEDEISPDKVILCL
Chain of CRBN-DDB1 (Q16531 whole entry partner): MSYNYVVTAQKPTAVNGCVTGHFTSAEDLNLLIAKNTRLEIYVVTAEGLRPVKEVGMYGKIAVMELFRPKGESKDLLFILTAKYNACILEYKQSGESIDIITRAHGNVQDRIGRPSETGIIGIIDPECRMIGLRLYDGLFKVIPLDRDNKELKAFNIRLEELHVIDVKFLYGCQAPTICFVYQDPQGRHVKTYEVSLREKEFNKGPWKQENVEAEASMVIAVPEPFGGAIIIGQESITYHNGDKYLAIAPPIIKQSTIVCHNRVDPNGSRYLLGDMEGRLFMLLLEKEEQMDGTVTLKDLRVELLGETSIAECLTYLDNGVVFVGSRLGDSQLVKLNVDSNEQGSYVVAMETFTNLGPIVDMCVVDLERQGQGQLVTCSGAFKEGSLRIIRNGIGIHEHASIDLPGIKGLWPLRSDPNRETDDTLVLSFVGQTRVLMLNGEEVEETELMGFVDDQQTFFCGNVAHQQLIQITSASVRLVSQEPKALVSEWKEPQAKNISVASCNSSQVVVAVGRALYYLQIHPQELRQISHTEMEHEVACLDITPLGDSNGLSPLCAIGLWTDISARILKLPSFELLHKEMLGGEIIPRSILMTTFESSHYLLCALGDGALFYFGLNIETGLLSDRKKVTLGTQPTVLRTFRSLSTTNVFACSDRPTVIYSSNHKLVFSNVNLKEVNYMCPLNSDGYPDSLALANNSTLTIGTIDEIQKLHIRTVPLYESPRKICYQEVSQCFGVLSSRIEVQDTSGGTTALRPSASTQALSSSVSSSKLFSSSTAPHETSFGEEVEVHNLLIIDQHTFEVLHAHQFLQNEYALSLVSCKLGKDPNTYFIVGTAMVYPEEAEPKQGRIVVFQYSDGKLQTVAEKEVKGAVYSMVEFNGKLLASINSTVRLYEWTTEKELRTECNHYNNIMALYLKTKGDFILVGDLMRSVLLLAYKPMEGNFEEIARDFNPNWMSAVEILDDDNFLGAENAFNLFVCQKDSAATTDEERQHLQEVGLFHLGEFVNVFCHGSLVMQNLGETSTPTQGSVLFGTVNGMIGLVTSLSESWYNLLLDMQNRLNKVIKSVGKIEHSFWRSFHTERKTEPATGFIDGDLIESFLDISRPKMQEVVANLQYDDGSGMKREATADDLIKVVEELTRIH

| Structure (SMILES) | EC50 [nM] |
| --- | --- |
| Cc1cncc(C(C)(C)C(=O)NCc2cc(Cl)c(C3CCC(=O)NC3=O)c(Cl)c2)n1 (stereo not drawn) [Compound 176] | 50 |
| Cn1ccc(C2(C(=O)NCc3cc(Cl)c(C4CCC(=O)NC4=O)c(Cl)c3)CCC2)cc1=O (stereo not drawn) [Compound 177] | 550 |
| CC(C)(C(=O)NCc1cc(Cl)c(C2CCC(=O)NC2=O)c(Cl)c1)c1ncc(C2COC2)cn1 (stereo not drawn) [Compound 178] | 290 |
| CC(C)(C(=O)NCc1cc(Cl)c(C2CCC(=O)NC2=O)c(Cl)c1)c1nccc(C(F)F)n1 (stereo not drawn) [Compound 182] | 200 |
| COCc1cnc(C(C)(C)C(=O)NCc2cc(Cl)c(C3CCC(=O)NC3=O)c(Cl)c2)nc1 (stereo not drawn) [Compound 183] | 370 |
| CC(C)(C(=O)NCc1cc(Cl)c(C2CCC(=O)NC2=O)c(Cl)c1)c1ccc2ncoc2n1 (stereo not drawn) [Compound 184] | 180 |
| CC(C)(C(=O)NCc1cc(Cl)c(C2CCC(=O)NC2=O)c(Cl)c1)c1cc(C2CC2)on1 (stereo not drawn) [Compound 185] | 220 |
| CC(C)(C(=O)NCc1cc(Cl)c(C2CCC(=O)NC2=O)c(Cl)c1)c1ncc(CC(F)F)cn1 (stereo not drawn) [Compound 186] | 90 |

Same assay, conditions: HTRF class; Cereblon binding

| Structure (SMILES) | EC50 [nM] |
| --- | --- |
| Cc1cncc(C(C)(C)C(=O)NCc2cc(Cl)c(C3CCC(=O)NC3=O)c(Cl)c2)n1 (stereo not drawn) [Compound 176] | ≤ 100 |
| Cn1ccc(C2(C(=O)NCc3cc(Cl)c(C4CCC(=O)NC4=O)c(Cl)c3)CCC2)cc1=O (stereo not drawn) [Compound 177] | 100 to 1000 |
| CC(C)(C(=O)NCc1cc(Cl)c(C2CCC(=O)NC2=O)c(Cl)c1)c1ncc(C2COC2)cn1 (stereo not drawn) [Compound 178] | 100 to 1000 |
| CC(C)(C(=O)NCc1cc(Cl)c(C2CCC(=O)NC2=O)c(Cl)c1)c1nccc(C(F)F)n1 (stereo not drawn) [Compound 182] | 100 to 1000 |
| COCc1cnc(C(C)(C)C(=O)NCc2cc(Cl)c(C3CCC(=O)NC3=O)c(Cl)c2)nc1 (stereo not drawn) [Compound 183] | 100 to 1000 |
| CC(C)(C(=O)NCc1cc(Cl)c(C2CCC(=O)NC2=O)c(Cl)c1)c1ccc2ncoc2n1 (stereo not drawn) [Compound 184] | 100 to 1000 |
| CC(C)(C(=O)NCc1cc(Cl)c(C2CCC(=O)NC2=O)c(Cl)c1)c1cc(C2CC2)on1 (stereo not drawn) [Compound 185] | 100 to 1000 |
| CC(C)(C(=O)NCc1cc(Cl)c(C2CCC(=O)NC2=O)c(Cl)c1)c1ncc(CC(F)F)cn1 (stereo not drawn) [Compound 186] | ≤ 100 |

Each compound was assayed against NEK7 (Homo sapiens (Human), UniProt Q8TDX7+Q96SW2) (assay: NEK7 NanoBiT degradation assay in Cal51 NEK7 NanoBiT cell line). Settings: CAL-51; Cal51 NEK7 NanoBiT cells, 24 hours; read-out: NEK7 NanoBiT Dmax.
Chain of NEK7 (Q8TDX7 whole entry): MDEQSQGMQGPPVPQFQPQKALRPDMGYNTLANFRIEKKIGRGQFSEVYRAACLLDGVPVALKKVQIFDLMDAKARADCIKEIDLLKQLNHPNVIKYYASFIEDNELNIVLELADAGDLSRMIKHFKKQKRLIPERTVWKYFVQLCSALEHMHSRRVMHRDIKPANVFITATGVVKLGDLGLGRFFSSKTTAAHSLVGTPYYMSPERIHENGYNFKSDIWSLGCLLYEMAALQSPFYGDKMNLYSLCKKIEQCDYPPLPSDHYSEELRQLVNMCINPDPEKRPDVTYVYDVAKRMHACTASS
Chain of NEK7 (Q96SW2 whole entry): as the sequence (Q96SW2 whole entry) above
Chain of NEK7 (Q16531 2-1140 partner): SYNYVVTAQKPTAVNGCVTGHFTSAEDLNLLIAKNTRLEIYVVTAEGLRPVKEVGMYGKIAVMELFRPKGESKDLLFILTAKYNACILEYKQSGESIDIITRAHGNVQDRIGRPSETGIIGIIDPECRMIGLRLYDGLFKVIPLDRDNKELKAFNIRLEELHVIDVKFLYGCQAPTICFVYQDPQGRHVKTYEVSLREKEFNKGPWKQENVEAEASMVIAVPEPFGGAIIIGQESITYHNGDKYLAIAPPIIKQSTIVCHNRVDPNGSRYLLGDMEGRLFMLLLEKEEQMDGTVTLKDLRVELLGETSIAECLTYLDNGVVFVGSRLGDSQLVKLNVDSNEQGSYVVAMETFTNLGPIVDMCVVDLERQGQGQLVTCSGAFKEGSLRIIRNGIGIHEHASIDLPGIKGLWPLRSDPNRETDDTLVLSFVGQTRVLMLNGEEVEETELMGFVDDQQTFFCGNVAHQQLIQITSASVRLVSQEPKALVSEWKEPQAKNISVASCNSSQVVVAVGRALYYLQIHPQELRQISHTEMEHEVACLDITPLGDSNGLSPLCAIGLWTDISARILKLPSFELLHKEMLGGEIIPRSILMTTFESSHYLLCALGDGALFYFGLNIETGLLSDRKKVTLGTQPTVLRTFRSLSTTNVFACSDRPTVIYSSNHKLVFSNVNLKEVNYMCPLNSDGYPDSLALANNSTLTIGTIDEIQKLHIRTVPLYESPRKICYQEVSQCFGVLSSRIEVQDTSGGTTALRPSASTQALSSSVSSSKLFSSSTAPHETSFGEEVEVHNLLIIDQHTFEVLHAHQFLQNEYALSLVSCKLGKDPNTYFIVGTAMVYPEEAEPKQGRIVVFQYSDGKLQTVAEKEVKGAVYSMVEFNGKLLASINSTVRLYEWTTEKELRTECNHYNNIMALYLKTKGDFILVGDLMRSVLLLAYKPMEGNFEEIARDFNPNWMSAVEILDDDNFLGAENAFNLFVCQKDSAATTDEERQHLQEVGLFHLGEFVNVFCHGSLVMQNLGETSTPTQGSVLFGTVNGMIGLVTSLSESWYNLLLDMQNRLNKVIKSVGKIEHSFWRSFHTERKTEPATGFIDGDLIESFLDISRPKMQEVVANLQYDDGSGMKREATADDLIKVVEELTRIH
Assay type: cell-based
Procedure, shortened: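 EC50 comes from a 4-parameter fit of control-normalized luminescence. The luminescence reports HiBiT-NEK7 (endogenous knock-in) complemented by stably expressed LgBiT in Cal51 cells after 24 h compound exposure at 37 °C. Final concentrations ran 1 μM to 0.05 nM, with Endurazine substrate present in the medium throughout.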

| Structure (SMILES) | Dmax [%] |
| --- | --- |
| Cc1cncc(C(C)(C)C(=O)NCc2cc(Cl)c(C3CCC(=O)NC3=O)c(Cl)c2)n1 (stereo not drawn) [Compound 176] | 60 |
| Cn1ccc(C2(C(=O)NCc3cc(Cl)c(C4CCC(=O)NC4=O)c(Cl)c3)CCC2)cc1=O (stereo not drawn) [Compound 177] | 85 |
| CC(C)(C(=O)NCc1cc(Cl)c(C2CCC(=O)NC2=O)c(Cl)c1)c1ncc(C2COC2)cn1 (stereo not drawn) [Compound 178] | 66 |
| CC(C)(C(=O)NCc1cc(Cl)c(C2CCC(=O)NC2=O)c(Cl)c1)c1nccc(C(F)F)n1 (stereo not drawn) [Compound 182] | 72 |
| COCc1cnc(C(C)(C)C(=O)NCc2cc(Cl)c(C3CCC(=O)NC3=O)c(Cl)c2)nc1 (stereo not drawn) [Compound 183] | 71 |
| CC(C)(C(=O)NCc1cc(Cl)c(C2CCC(=O)NC2=O)c(Cl)c1)c1ccc2ncoc2n1 (stereo not drawn) [Compound 184] | 95 |
| CC(C)(C(=O)NCc1cc(Cl)c(C2CCC(=O)NC2=O)c(Cl)c1)c1cc(C2CC2)on1 (stereo not drawn) [Compound 185] | 83 |
| CC(C)(C(=O)NCc1cc(Cl)c(C2CCC(=O)NC2=O)c(Cl)c1)c1ncc(CC(F)F)cn1 (stereo not drawn) [Compound 186] | 65 |

Same assay, conditions: CAL-51; NEK7 degradation, Cal51 NEK7 NanoBiT cells, 24 hours; read-out: NanoBiT Dmax

| Structure (SMILES) | Dmax [%] |
| --- | --- |
| Cc1cncc(C(C)(C)C(=O)NCc2cc(Cl)c(C3CCC(=O)NC3=O)c(Cl)c2)n1 (stereo not drawn) [Compound 176] | 50 to 75 |
| Cn1ccc(C2(C(=O)NCc3cc(Cl)c(C4CCC(=O)NC4=O)c(Cl)c3)CCC2)cc1=O (stereo not drawn) [Compound 177] | > 75 |
| CC(C)(C(=O)NCc1cc(Cl)c(C2CCC(=O)NC2=O)c(Cl)c1)c1ncc(C2COC2)cn1 (stereo not drawn) [Compound 178] | 50 to 75 |
| CC(C)(C(=O)NCc1cc(Cl)c(C2CCC(=O)NC2=O)c(Cl)c1)c1nccc(C(F)F)n1 (stereo not drawn) [Compound 182] | 50 to 75 |
| COCc1cnc(C(C)(C)C(=O)NCc2cc(Cl)c(C3CCC(=O)NC3=O)c(Cl)c2)nc1 (stereo not drawn) [Compound 183] | 50 to 75 |
| CC(C)(C(=O)NCc1cc(Cl)c(C2CCC(=O)NC2=O)c(Cl)c1)c1ccc2ncoc2n1 (stereo not drawn) [Compound 184] | > 75 |
| CC(C)(C(=O)NCc1cc(Cl)c(C2CCC(=O)NC2=O)c(Cl)c1)c1cc(C2CC2)on1 (stereo not drawn) [Compound 185] | > 75 |
| CC(C)(C(=O)NCc1cc(Cl)c(C2CCC(=O)NC2=O)c(Cl)c1)c1ncc(CC(F)F)cn1 (stereo not drawn) [Compound 186] | 50 to 75 |

Same assay, conditions: Cal51 NEK7 NanoBiT cells, 24 hours; read-out: NEK7 NanoBiT DC50

| Structure (SMILES) | DC50 [nM] |
| --- | --- |
| Cc1cncc(C(C)(C)C(=O)NCc2cc(Cl)c(C3CCC(=O)NC3=O)c(Cl)c2)n1 (stereo not drawn) [Compound 176] | 116 |
| Cn1ccc(C2(C(=O)NCc3cc(Cl)c(C4CCC(=O)NC4=O)c(Cl)c3)CCC2)cc1=O (stereo not drawn) [Compound 177] | 53 |
| CC(C)(C(=O)NCc1cc(Cl)c(C2CCC(=O)NC2=O)c(Cl)c1)c1ncc(C2COC2)cn1 (stereo not drawn) [Compound 178] | 95 |
| CC(C)(C(=O)NCc1cc(Cl)c(C2CCC(=O)NC2=O)c(Cl)c1)c1nccc(C(F)F)n1 (stereo not drawn) [Compound 182] | 54 |
| COCc1cnc(C(C)(C)C(=O)NCc2cc(Cl)c(C3CCC(=O)NC3=O)c(Cl)c2)nc1 (stereo not drawn) [Compound 183] | 56 |
| CC(C)(C(=O)NCc1cc(Cl)c(C2CCC(=O)NC2=O)c(Cl)c1)c1ccc2ncoc2n1 (stereo not drawn) [Compound 184] | 3 |
| CC(C)(C(=O)NCc1cc(Cl)c(C2CCC(=O)NC2=O)c(Cl)c1)c1cc(C2CC2)on1 (stereo not drawn) [Compound 185] | 15 |
| CC(C)(C(=O)NCc1cc(Cl)c(C2CCC(=O)NC2=O)c(Cl)c1)c1ncc(CC(F)F)cn1 (stereo not drawn) [Compound 186] | 90 |

Same assay, conditions: NEK7 degradation, Cal51 NEK7 NanoBiT cells, 24 hours; read-out: NanoBiT DC50

| Structure (SMILES) | DC50 [nM] |
| --- | --- |
| Cc1cncc(C(C)(C)C(=O)NCc2cc(Cl)c(C3CCC(=O)NC3=O)c(Cl)c2)n1 (stereo not drawn) [Compound 176] | 100 to 1000 |
| Cn1ccc(C2(C(=O)NCc3cc(Cl)c(C4CCC(=O)NC4=O)c(Cl)c3)CCC2)cc1=O (stereo not drawn) [Compound 177] | ≤ 100 |
| CC(C)(C(=O)NCc1cc(Cl)c(C2CCC(=O)NC2=O)c(Cl)c1)c1ncc(C2COC2)cn1 (stereo not drawn) [Compound 178] | ≤ 100 |
| CC(C)(C(=O)NCc1cc(Cl)c(C2CCC(=O)NC2=O)c(Cl)c1)c1nccc(C(F)F)n1 (stereo not drawn) [Compound 182] | ≤ 100 |
| COCc1cnc(C(C)(C)C(=O)NCc2cc(Cl)c(C3CCC(=O)NC3=O)c(Cl)c2)nc1 (stereo not drawn) [Compound 183] | ≤ 100 |
| CC(C)(C(=O)NCc1cc(Cl)c(C2CCC(=O)NC2=O)c(Cl)c1)c1ccc2ncoc2n1 (stereo not drawn) [Compound 184] | ≤ 100 |
| CC(C)(C(=O)NCc1cc(Cl)c(C2CCC(=O)NC2=O)c(Cl)c1)c1cc(C2CC2)on1 (stereo not drawn) [Compound 185] | ≤ 100 |
| CC(C)(C(=O)NCc1cc(Cl)c(C2CCC(=O)NC2=O)c(Cl)c1)c1ncc(CC(F)F)cn1 (stereo not drawn) [Compound 186] | ≤ 100 |
